Data: PubChem BioAssay (NCI)
Values joined by “and” are separate entries in the source; they are usually repeats but may differ in a detail not shown here. Equal entries are not always repeated.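 Assay format: 96-well plates, 48-hour exposure. GI50 marks 50% less growth. TGI is the concentration that stops growth completely.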

System: MDA-MB-468 breast
Test: NCI tumour cell line growth inhibition, 48 h

SMILES	GI50	TGI
Nc1c(C(=O)c2cccc(-c3ccncc3)c2)cnn1-c1ccc(F)cc1	4.42 µM	> 25 µM
COc1ccc(-c2cn(-c3cccc(C(=O)/C=C/c4cc(OC)c(OC)c(OC)c4)c3)c(=O)[nH]2)cc1	3.07 µM	10.8 µM
c1ccc(-c2nc([P+](c3ccccc3)(c3ccccc3)c3ccccc3)c(N3CCOCC3)o2)cc1	0.278 µM	1.06 µM
C#CCN(C)CCCOc1ccc(NCc2ccc(/C=C/C(=O)NO)cc2)cc1Cl	0.411 µM	3.55 µM
COC(=O)[C@]12CC[C@@H](C(=O)/C=C/c3cccnc3)[C@@H]1[C@H]1CC[C@@H]3[C@@]4(C)C/C(=C/c5cccnc5)C(=O)C(C)(C)[C@@H]4CC[C@@]3(C)[C@]1(C)CC2	0.272 µM	0.712 µM
Nc1cc2ccccc2c(O)c1O	2.19 µM	4.75 µM
c1ccc(-c2cccc(-c3ccccn3)n2)nc1	0.284 µM	1.73 µM
CCCCCCCCCOc1c(OC)cc(C2CC(=O)Nc3c2c(C)nn3-c2nc3ccccc3[nH]2)cc1OC (stereo not drawn)	0.891 µM	2.09 µM
O=C(Cc1ccc(OCc2ccccc2)cc1)NCc1ccc2c(c1)OCO2	5.9 µM	> 100 µM
CC(C)CNC(=O)c1ccc(NC(=O)N(CC(C)C)C(=O)c2ccc(N)c(OCCCN)c2)c(OCCCN=C(N)N)c1	> 62.5 µM	> 62.5 µM
CN(C)c1ccc(N=Nc2ccc(Br)cn2)c(O)c1	0.469 µM	3.98 µM
Cc1cc(-c2ccc(C3C(C#N)=C(N)Oc4c3c(=O)oc3ccccc43)cc2)cnc1F (stereo not drawn)	17.5 µM	82.5 µM
COc1cc(/C=C\c2cc(/C=C\c3ccc(O)c(OC)c3)n(C(=O)COc3ccccc3)n2)ccc1O	1.71 µM	7.39 µM
CN1C(=O)C23CC4(C56CC78SSC(CO)(C(=O)N7C5Nc5ccccc56)N(C)C8=O)c5ccccc5NC4N2C(=O)C1(CO)SS3 (stereo not drawn)	< 0.0241 µM	0.0606 µM
O=C(Nc1ccc(-n2ccc3c(NC(=O)c4ccccc4)ncnc32)cc1)c1ccc(Cl)c(C(F)(F)F)c1	2.86 µM	9.23 µM
NC1(c2ccc(-c3nc4ccn5c(=O)[nH]nc5c4cc3-c3ccccc3)cc2)CCC1	0.0169 µM and 0.0943 µM and 0.0626 µM	
COc1ccc2[nH]c(=O)c(/C=C/C(=O)c3ccccc3OC)cc2c1	0.336 µM	1.65 µM
N=C(N)c1ccc(-c2ccc(-c3cccs3)o2)cc1	1.72 µM	3.4 µM
N=C(N)c1ccc(-c2ccc(-c3ccc(F)cc3)s2)nc1	1.63 µM	3.38 µM
CO[C@H]1C[C@@H]2CC[C@@H](C)[C@@](O)(O2)C(=O)C(=O)N2CCCC[C@H]2C(=O)O[C@H]([C@H](C)C[C@@H]2CC[C@@H](O)[C@H](OC)C2)CC(=O)[C@H](C)C=C(C)[C@@H](O)[C@@H](OC)C(=O)[C@H](C)C[C@H](C)/C=C/C=C/C=C1C	3.64e-05 µM and 0.000315 µM	13.4 µM
O=c1[nH]c2c3ccncc3cc(-c3cccc(Cl)c3)c2c2cnccc12	> 100 µM	> 100 µM

SMILES	GI50	TGI
C=C1C(=O)O[C@H]2[C@H]1CC/C(COC(=O)NCc1c[nH]c3ccc(Br)cc13)=C\CC[C@@]1(C)O[C@@H]21	0.451 µM	1.93 µM
CN1CCN(Cc2ccc(NC(=O)c3cncc(C#Cc4cnc5ccc(Cl)nn45)c3)cc2C(F)(F)F)CC1	1.11 µM	2.58 µM
CC1CN=C(c2cccc(-c3ccc(-c4ccccc4)o3)c2)N1 (stereo not drawn)	1.69 µM	3.92 µM
Oc1ccc(Cl)cc1-c1cc(-c2ccc(Cl)cc2)n[nH]1	1.4 µM	6.44 µM
COc1cccc(-n2ncc3c(N/N=C/c4cccc(F)c4)ncnc32)c1	5.44 µM	13.6 µM
Cc1cnc(NC2CCOCC2)nc1-n1cnc(C(=O)N[C@H](CN)c2cc(F)cc(Cl)c2)c1	2.67 µM	11.8 µM
C1CCC(C(CC2CCCCN2)C2CCCCC2)CC1 (stereo not drawn)	1.37 µM	2.85 µM
CCN1C2=C(SC(=S)C1=C1SC(C(=O)OC)=C(C(=O)OC)S1)SC(=Nc1ccc(OC)cc1)C2=O	1.73 µM	3.46 µM
COC(=O)CCC1=C(C)C(C)=N/C1=C\c1[nH]c(-c2ccc[nH]2)cc1OC	0.647 µM	2.7 µM
COc1ccc2c(c1)C(=O)c1c-2c(=O)n(CCCCCCC(=O)NO)c2ccccc12	0.0463 µM	0.449 µM
C=C(C)[C@@H]1CC[C@]2(C)[C@H](CC[C@@H]3[C@@H]([C@@](C)(O)CCC=C(C)C)CC[C@]32C)[C@@]1(C)CCC(=O)N1CCN(C)CC1	5.49 µM	18.5 µM
C/C(=N\NC(=O)c1ccccc1N)c1ccccc1O	1.71 µM	13.8 µM
O=C(C1CC1)N1CC[C@@H](Cc2n[nH]c(=O)n2-c2ccc(-c3ccc4occc4c3)cc2)C1	20.3 µM	98.1 µM
NC(=O)c1cc(Cl)ccc1NC(=O)COc1ccccc1	1.74 µM	> 100 µM
CNC[C@@H](NC(=O)c1ccc(-c2nc([C@H]3CC[C@H](O)[C@@H](F)C3)cnc2N)cc1F)c1cc(F)cc(Br)c1	13.2 µM	28.4 µM
CCOC(=O)C#Cc1c(C(=O)OCC)nnn1Cc1ccc(C(F)(F)F)cc1	1.88 µM	4.05 µM
CCN1CCN(Cc2ccc(NC(=O)c3nc4ccc5[nH]ncc5c4c4c3CCCC4)cc2C(F)(F)F)CC1	0.893 µM	1.79 µM
COC(=O)[C@@H](C)C[C@H](Cc1ccccc1)NC(=O)c1nc([C@@H](C[C@H](C(C)C)N(C)C(=O)[C@@H](NC(=O)[C@H]2CCCCN2C)C(C)C)OC(C)=O)sc1C(C)C	< 0.00333 µM	0.137 µM
O=C1C=C(Nc2cccnc2)c2ccccc2C1=O	3.2 µM	11.1 µM
C/C(=C\C(=N\N=C(N)N)c1ccc(Cl)cc1)c1ccc(Cl)cc1	0.125 µM	1.46 µM
O=C1C=C2C(=CCOC2O)O1 (stereo not drawn)	0.425 µM	2.76 µM
